Assay results as given in paper PMC7367283, “A PIP2 substitute mediates voltage sensor-pore coupling in KCNQ activation” (Communications Biology, 2020).

Biological target: IKs channels (Homo sapiens, UniProt P51787)
Experiment: Inside-out patch clamp of IKs channels expressed in Xenopus oocytes (rundown and rescue)
Type: cell-based
Conditions: 10 µM CP1 on intracellular side; pulses to +80 mV
Source text: We tested whether CP1 can mimic PIP2 in mediating VSD-pore coupling. We co-expressed KCNQ1 with the voltage-dependent lipid phosphatase CiVSP[44] in Xenopus oocytes and recorded KCNQ1 currents using two-electrode voltage clamp with consecutive depolarizing voltage pulses. The current increased upon KCNQ1 activation at the beginning of the first voltage pulse (First trace, Fig. 2a) and then declined due to CiVSP activation to deplete PIP2[18]. A subsequent voltage pulse elicited much smaller KCNQ1 currents (Rundown trace, Fig. 2a) as a result of PIP2 depletion that had insufficient time to be replenished by endogenous enzymes between the pulses. […] Similarly, the IKs channel (KCNQ1 + KCNE1) currents decrease upon co-expression with CiVSP with consecutive voltage pulses (Fig. 2c, d), which is similar to our previous observations. […] To more directly test CP1 effects, we applied CP1 to the intracellular side of the inside-out membrane patch that expressed IKs channels. […]
Macroscopic currents expressed in Xenopus oocytes were recorded from inside-out patches formed with borosilicate pipettes of 0.5–1.0-MΩ resistance. […]

`O=S(=O)([O-])Oc1c(-c2sc3c(ccc4cccc(Cl)c43)c2OS(=O)(=O)[O-])[nH]c2ccc(Br)cc12.[Na+].[Na+]` [CP1, DISODIUM 5-BROMO-2-[9-CHLORO-3-(SULFONATOOXY) NAPHTHO [1,2-B] THIEN-2-YL]-1H-INDOL-3-YL SULFATE] was tested, and the “IKs current after rundown in inside-out patch” value was “the current increased with consecutive voltage pulses”.
